In patent publication US9486474B2, “Interstitial therapy for immediate symptom relief and chronic therapy in interstitial cystitis” (THE REGENTS OF THE UNIVERSITY OF CALIFORNIA, priority 2004, dated 2016):

Legend:
[1] = system: IC patients; settings: intravesical DMSO therapy; cited from earlier work
[2] = system: IC patients; experiment: heparin versus PPS in the intravesical therapeutic solution (preliminary data); type: in vivo, human
Description: Data from preliminary studies for one embodiment of an intravesical therapeutic solution can provide immediate temporary relief of the symptoms of urgency and pain in IC patients [Dell and Parsons, Abstract presented at NIDDK/Interstitial Cystitis Association Symposium, Research Insights into Interstitial Cystitis, Alexandria, Va., (Oct. 30-Nov. 1, 2003); Davis, et al. Abstract presented at NIDDK/Interstitial Cystitis Association Symposium, Research Insights into Interstitial Cystitis, Alexandria, Va. (Oct. 30-Nov. 1, 2003); Parsons, Contemp Urol 15: 22-24, 27-28, 31-32, 35 (2003)]. One of the methods of the present invention combines heparin and lidocaine buffered with sodium bicarbonate to pH >8.0 via direct catheter delivery to the bladder, providing immediate and long term pain relief for chronic IC sufferers. In some embodiments, the solution contains 10,000-40,000 units of heparin. In some embodiments, heparin is replaced by 100-200 mg PPS (the contents of an oral capsule dissolved in 10 mL buffered normal saline), 10 mL 1% lidocaine or 16 mL 2% lidocaine, and 3 mL 8.4% sodium bicarbonate (w/v). The solution is instilled into the empty bladder and retained for approximately 30 minutes. The principal difference between this therapeutic solution and other such solutions is the presence of sodium bicarbonate, which dramatically increases the absorption of the lidocaine. […]

[3] = system: IC; settings: oral PPS, after 8 to 12 months of therapy; cited from earlier work

| Molecule | IC patients treated who benefit [1] | efficacy in the therapeutic solution, heparin compared with PPS [2] | response rate [3] |
| --- | --- | --- | --- |
| C[S+](C)[O-] [DMSO, dimethylsulfoxide] | approximately 50% | – | – |
| heparin | – | equal efficacy | – |
| pentosan polysulfate sodium [PPS] | – | equal efficacy | approximately 70% |
